Reference: patent US20030229113A1, “Keratinocyte growth inhibitors and hydroxamic acid derivatives” (priority 2003, published 2003)
Where two headings read alike, the source gives them in different places.

Assays:
[1] = tested on: solubilizing enzyme of HB-EGF; assay: Inhibition of TPA-stimulated release of HB-EGF from HT-1080 transfectant expressing HB-EGF/alkaline phosphatase fusion protein; assay type: cell-based, human; settings: HT-1080 HB-EGF-AP transfectant, TPA 60 nM for 60 min, AP activity in conditioned medium (OD405)
Description: Human fibrosarcoma HT-1080 stable transfectant expressing fusion protein of HB-EGF and human placental alkaline phosphatase (AP) were used for following experiments.
The cultured transfectant was treated with Trypsin-EDTA solution, and suspended in Minimum Essential Medium (without phenol red; supplemented with 10% heat-inactivated fetal calf serum; MEM) at the concentration of 1×10^5 cells/ml. Each 0.2 ml of the cell suspension was dispensed into individual wells of 96 well microplate, and incubated overnight in the CO2 incubator (37° C.). After the incubation, the conditioned medium was removed, and the wells were washed once with 0.2 ml of phosphate buffered saline. The cells were treated with 0.1 ml of compound solution [compound solutions in dimethylsulfoxide (DMSO) were diluted 100 times with MEM] for 30 min at 37° C. Then the compound solutions were removed, and cells were treated with 0.2 ml of TPA solution (120 μM) of stock solution was diluted to 60 nM with MEM) containing same concentration of the compound for 60 min at 37° C. The cells treated same procedure without compound were used as control.
After these treatments, each 0.1 ml of conditioned medium was transferred to individual wells of new 96 well microplate and incubated at 65° C. for 10 min to inactivate endogenous alkaline phosphatase. One hundred microliter of substrate solution (1 mg/ml of p-nitrophenyl phosphate in 0.01% magnesium chloride/1 M diethanolamine) for AP was added to each well and incubated for 120 min at room temperature in the dark. The OD405 of each well was measured with microplate reader. The IC50 values of the compounds were calculated from the concentration-inhibition curves.

[2] = tested on: epidermal hyperplasia induced by TPA; assay: TPA-induced epidermal hyperplasia on dorsal skin of mice; assay type: in vivo, male BALB/c mice; settings: ED50; topical in acetone at 1 minute, 24 and 48 hours after TPA; epidermal thickness 72 hours after TPA
Description: After backs of male BALB/c mice were shaved, 20 micro 1 of TPA-acetone solution (50 μM) was applied to the dorsal skin surface in an area of ca. 1 cm^2. A volume of 20 micro 1 of test compound-acetone solution was applied to the same area a minute, 24 hours and 48 hours after TPA application (the treated group). In the non-treated group, acetone was applied instead of the test compound. In the control group, acetone was applied instead of TPA and the test compound. The mice were sacrificed, and the skin tissues treated with TPA or the test compound were excised 72 hours after TPA application. Then the tissues were fixed with 10% formalin and embedded in paraffin according to the conventional method. The vertical sections including the center of the TPA- or the test compound-treated area were prepared and they were stained by hematoxylin-eosin. The epidermal thickness was measured using an ocular microscope. The amount of the test compound required for achieving 50% inhibition against the mean epidermal thickness of the non-treated group (ED50) was calculated, wherein the mean epidermal thickness of the non-treated group was 100% and that of the control group was 0%.

What does the source list for `O=C(NO)C1Cc2nccnc2CN1S(=O)(=O)c1ccc(OC(F)(F)F)cc1` (single isomer, unassigned; (+)) [the compound(17), (+)-N-Hydroxy-6-(4-trifluoromethoxybenzenesulfonyl)-5,6,7,8-tetrahydropyrido[3,4-b]pyrazine-7-carboxamide]?
IC50 ([1]; read-out: IC50): 330 nM; Amount of test compound required for 50% suppression of epidermal hyperplasia [2]: 48 10^−6 g/cm^2

Which results are given for `CCOCCOc1ccc(S(=O)(=O)N2Cc3nccnc3CC2C(=O)NO)cc1` (single isomer, unassigned; (+)) [the compound(27), (+)-N-Hydroxy-6-[4-(2-ethoxyethoxy)benzenesulfonyl]-5,6,7,8-tetrahydropyrido[3,4-b]pyrazine-7-carboxamide]?
IC50 ([1]; read-out: IC50): 36 nM; Amount of test compound required for 50% suppression of epidermal hyperplasia [2]: 58 10^−6 g/cm^2

For `CC(=O)OCCOc1ccc(S(=O)(=O)N2Cc3nccnc3CC2C(=O)NO)cc1` (single isomer, unassigned; (+)) [the compound(33), (+)-N-Hydroxy-6-[4-(2-acetoxyethoxy)benzenesulfonyl]-5,6,7,8-tetrahydropyrido[3,4-b]pyrazine-7-carboxamide], which IC50 ([1]; read-out: IC50) is on record?
Its IC50 is 400 nM.

How did the IC50 ([1]; read-out: IC50) turn out when `O=C(NO)C1Cc2nccnc2CN1S(=O)(=O)c1ccc(OCCO)cc1` (single isomer, unassigned; (+)) [the compound(34), (+)-N-Hydroxy-6-[4-(2-hydroxyethoxy)benzenesulfonyl]-5,6,7,8-tetrahydropyrido[3,4-b]pyrazine-7-carboxamide] was run?
The IC50 was 1500 nM.

Which IC50 ([1]; read-out: IC50) does the source give for `CSc1ccc(S(=O)(=O)N2Cc3nccnc3CC2C(=O)NO)cc1` (single isomer, unassigned; (+)) [the compound(35), (+)-N-Hydroxy-6-(4-methylthiobenzenesulfonyl)-5,6,7,8-tetrahydropyrido[3,4-b]pyrazine-7-carboxamide] here?
Its IC50 is 1500 nM.

With `O=C(NO)C1Cc2nccnc2CN1S(=O)(=O)c1ccccc1` (single isomer, unassigned; (+)) [the compound(36), (+)-N-Hydroxy-6-benzenesulfonyl-5,6,7,8-tetrahydropyrido[3,4-b]pyrazine-7-carboxamide] as the compound, how does the IC50 ([1]; read-out: IC50) read?
Its IC50 is 510 nM.

And the “Amount of test compound required for 50% suppression of epidermal hyperplasia” value [2]?
Its value is 130 10^−6 g/cm^2.

What does the source list for `O=C(NO)C1Cc2nccnc2CN1S(=O)(=O)c1ccc(F)cc1` (single isomer, unassigned; (+)) [the compound(37), (+)-N-Hydroxy-6-(4-fluorobenzenesulfonyl)-5,6,7,8-tetrahydropyrido[3,4-b]pyrazine-7-carboxamide]?
IC50 ([1]; read-out: IC50): 810 nM; Amount of test compound required for 50% suppression of epidermal hyperplasia [2]: 120 10^−6 g/cm^2

For `CCCCCCc1ccc(S(=O)(=O)N2Cc3nccnc3CC2C(=O)NO)cc1` (single isomer, unassigned; (+)) [the compound(38), (+)-N-Hydroxy-6-(4-hexylbenzenesulfonyl)-5,6,7,8-tetrahydropyrido[3,4-b]pyrazine-7-carboxamide], which IC50 ([1]; read-out: IC50) is on record?
Its IC50 is 1700 nM.

How did the IC50 ([1]; read-out: IC50) turn out when `Nc1ccc(S(=O)(=O)N2Cc3nccnc3CC2C(=O)NO)cc1` (single isomer, unassigned; (+)) [the compound(39), (+)-N-Hydroxy-6-(4-aminobenzenesulfonyl)-5,6,7,8-tetrahydropyrido[3,4-b]pyrazine-7-carboxamide] was run?
The IC50 was 1800 nM.

`O=C(NO)C1Cc2nccnc2CN1S(=O)(=O)c1ccc(-c2ccccc2)cc1` (single isomer, unassigned; (+)) [the compound(40), (+)-N-Hydroxy-6-(biphenyl-4-sulfonyl)-5,6,7,8-tetrahydropyrido[3,4-b]pyrazine-7-carboxamide] was tested. Which IC50 ([1]; read-out: IC50) did it give?
Its IC50 is 1500 nM.

What about the “Amount of test compound required for 50% suppression of epidermal hyperplasia” value [2] of the same compound?
Its value is 20 10^−6 g/cm^2.

Which IC50 ([1]; read-out: IC50) does the source give for `O=C(NO)C1Cc2nccnc2CN1S(=O)(=O)c1ccc(O)cc1` (single isomer, unassigned; (+)) [the compound(41), (+)-N-Hydroxy-6-(4-hydroxybenzenesulfonyl)-5,6,7,8-tetrahydropyrido[3,4-b]pyrazine-7-carboxamide] here?
Its IC50 is 300 nM.

With `CC(=O)c1ccc(S(=O)(=O)N2Cc3nccnc3CC2C(=O)NO)cc1` (single isomer, unassigned; (+)) [the compound(42), (+)-N-Hydroxy-6-(4-acetylbenzenesulfonyl)-5,6,7,8-tetrahydropyrido[3,4-b]pyrazine-7-carboxamide] as the compound, how does the IC50 ([1]; read-out: IC50) read?
Its IC50 is 2200 nM.

For `CCCc1ccc(S(=O)(=O)N2Cc3nccnc3CC2C(=O)NO)cc1` (single isomer, unassigned; (+)) [the compound(43), (+)-N-Hydroxy-6-(4-propylbenzenesulfonyl)-5,6,7,8-tetrahydropyrido[3,4-b]pyrazine-7-carboxamide], which IC50 ([1]; read-out: IC50) is on record?
The IC50 was 1900 nM.

How did the IC50 ([1]; read-out: IC50) turn out when `C=Cc1ccc(S(=O)(=O)N2Cc3nccnc3CC2C(=O)NO)cc1` (single isomer, unassigned; (+)) [the compound(44), (+)-N-Hydroxy-6-(4-vinylbenzenesulfonyl)-5,6,7,8-tetrahydropyrido[3,4-b]pyrazine-7-carboxamide] was run?
The IC50 was 1100 nM.

For `O=C(NO)C1Cc2nccnc2CN1S(=O)(=O)c1ccc(OCCCc2ccccc2)cc1` (single isomer, unassigned; (+)) [the compound(45), (+)-N-Hydroxy-6-[4-(3-phenylpropoxy)benzenesulfonyl]-5,6,7,8-tetrahydropyrido[3,4-b]pyrazine-7-carboxamide], which IC50 [1] is on record?
The IC50 was 630 nM.

Which IC50 [1] does the source give for `O=C(NO)C1Cc2nccnc2CN1S(=O)(=O)c1cccs1` (single isomer, unassigned; (+)) [the compound(46), (+)-N-Hydroxy-6-[(thiophen-2-yl)sulfonyl]-5,6,7,8-tetrahydropyrido[3,4-b]pyrazine-7-carboxamide] here?
Its IC50 is 960 nM.

And the “Amount of test compound required for 50% suppression of epidermal hyperplasia” value [2]?
The value was 69 10^−6 g/cm^2.

How did the IC50 ([1]; read-out: IC50) turn out when `O=C(NO)C1Cc2nccnc2CN1S(=O)(=O)/C=C/c1ccccc1` (single isomer, unassigned; (+)) [the compound(47), (+)-N-Hydroxy-6-(2-trans-phenylethenesulfonyl)-5,6,7,8-tetrahydropyrido[3,4-b]pyrazine-7-carboxamide] was run?
Its IC50 is 1900 nM.

With `CS(=O)(=O)CCCOc1ccc(S(=O)(=O)N2Cc3nccnc3CC2C(=O)NO)cc1` (single isomer, unassigned; (+)) [the compound(48), (+)-N-Hydroxy-6-[4-(3-methansulfonylpropoxy)benzenesulfonyl]-5,6,7,8-tetrahydropyrido[3,4-b]pyrazine-7-carboxamide] as the compound, how does the IC50 ([1]; read-out: IC50) read?
Its IC50 is 1800 nM.

With `CNC(=O)C(NC(=O)C(CC(C)C)C(C)C(=O)NO)c1ccccc1` [the compound a, [4-(N-hydroxyamino)-2 (R)-isobutyl-3-methylsuccinyl]-L-phenylglycine-N-methylamide, reference compound] as the compound, how does the IC50 ([1]; read-out: IC50) read?
The IC50 was 430 nM.

Which IC50 ([1]; read-out: IC50) does the source give for `CNC(=O)C(Cc1cccc2c1CCCC2)NC(=O)C(CC(C)C)C(C)C(=O)NO` [the compound b, [4-(N-hydroxyamino)-2 (R)-isobutyl-3-methylsuccinyl]-L-3-(5,6,7,8-tetrahydro-1-naphtyl)alanine-N-methylamide, reference compound] here?
The IC50 was 120 nM.

With `CNC(=O)[C@@H](NC(=O)[C@H](CC(C)C)C(CN1CCc2ccccc2C1)C(=O)NO)c1ccccc1` (stereo partly drawn) [the compound c, [4-(N-hydroxyamino)-2 (R)-isobutyl-3-(1,2,3,4-tetrahydro-isoquinolylmethyl)succinyl]-L-phenylglycine —N-methylamide, reference compound] as the compound, how does the IC50 ([1]; read-out: IC50) read?
The IC50 was 54 nM.

What about the “Amount of test compound required for 50% suppression of epidermal hyperplasia” value [2] of the same compound?
The value was 190 10^−6 g/cm^2.

How did the IC50 ([1]; read-out: IC50) turn out when `CNC(=O)C(Cc1ccccc1)NC(=O)C(C(C)C)C(C)C(=O)NO` [the compound e, 4-(N-hydroxyamino)-2 (R)-isopropyl-3-methylsuccinyl-L-phenylalanine-N-methylamide, reference compound] was run?
Its IC50 is 100 nM.

`CNC(=O)C(Cc1ccccc1)NC(=O)C(CC(C)C)C(C)C(=O)NO` [the compound f, 4-(N-hydroxyamino)-2 (R)-isobutyl-3-methylsuccinyl-L-phenylalanine-N-methylamide, reference compound] was tested. Which IC50 ([1]; read-out: IC50) did it give?
The IC50 was 100 nM.

How did the IC50 ([1]; read-out: IC50) turn out when `COc1ccc(S(=O)(=O)N2C(C)c3nccnc3C(C)C2C(=O)NO)cc1` (stereo not drawn) [the compound(49), 7,8-cis-N-Hydroxy-5,8-dimethyl-6-(4-methoxybenzenesulfonyl)-5,6,7,8-tetrahydropyrido[3,4-b]pyrazine-7-carboxamide] was run?
The IC50 was 5600 nM.
